Earlier results in patent US7956090B2, “Composition and method for increasing the anabolic state of muscle cells” (priority 2007, dated 2011).

Experiments:
[1] = about 1.5 g daily after intense exercise for 42 days
[2] = condensation and cyclization upon dissolution in water

Row | stability in aqueous solution [2] | SMILES | delayed onset muscle soreness [1] | total lean soft tissue mass [1]
1 | – | CC(C)CC(O)C(=O)O (stereo not drawn) [HICA, 2-hydroxy-4-methylvaleric acid] | little to no delayed onset muscle soreness | statistically significant increase
2 | poor stability | CC(=O)C(=O)O [pyruvate, pyruvic acid] | – | –
